Measurements: article PMC6599250, “Functional diversity of inhibitors tackling the differentiation blockage of MLL-rearranged leukemia” (Journal of Hematology & Oncology, 2019)
Blank lines part the entries; values can stand above or below the compound they belong to.

Columns and labels:
MENIN-MLL interaction = MENIN-MLL interaction (Homo sapiens, UniProt O00255); assay: On target potency, MENIN-MLL interaction; format: biochemical
Text: Table 1 Inhibitors used in this study. Chemical structures of inhibitor used in this study tackling Menin-MLL1 interaction, BRD4/2/3, DOT1L, CDK9, and DHODH active sites, with respective biochemical IC50, rationale and current developmental status | column: BAY-155

[1] = tested on: MLL-fused cell lines (MV4-11, MOLM-13); assay: Cell proliferation, MLL-fused cell lines; format: cell-based; conditions: 4 days of treatment (Fig. 1a), DMSO = 100%
Method: Cells were seeded in the optimal growth medium at 4000–5000 cells/well in a 96 MTP and cultured 18–24 h before inhibitor treatment. Upon treatment with the indicated inhibitor, cells were cultured for 24 h, 96 h, and 168 h and effects on proliferation were determined using alamarBlue Cell Viability Reagent (Thermo Fisher Scientific, Waltham, MA, USA).

P-TEFb/CDK9 = conditions: read-out: On target Potency IC50; cited from earlier work
[2] = tested on: MYC, PCNA, and MCL-1 levels; set-up: method as in earlier work; conditions: initial pharmacodynamics data analysis; cited from earlier work
BRD4/2/3 = conditions: read-out: On target Potency EC50; cited from earlier work
AML patients = conditions: cited from earlier work

MENIN-MLL interaction, sequence (O00255 whole entry): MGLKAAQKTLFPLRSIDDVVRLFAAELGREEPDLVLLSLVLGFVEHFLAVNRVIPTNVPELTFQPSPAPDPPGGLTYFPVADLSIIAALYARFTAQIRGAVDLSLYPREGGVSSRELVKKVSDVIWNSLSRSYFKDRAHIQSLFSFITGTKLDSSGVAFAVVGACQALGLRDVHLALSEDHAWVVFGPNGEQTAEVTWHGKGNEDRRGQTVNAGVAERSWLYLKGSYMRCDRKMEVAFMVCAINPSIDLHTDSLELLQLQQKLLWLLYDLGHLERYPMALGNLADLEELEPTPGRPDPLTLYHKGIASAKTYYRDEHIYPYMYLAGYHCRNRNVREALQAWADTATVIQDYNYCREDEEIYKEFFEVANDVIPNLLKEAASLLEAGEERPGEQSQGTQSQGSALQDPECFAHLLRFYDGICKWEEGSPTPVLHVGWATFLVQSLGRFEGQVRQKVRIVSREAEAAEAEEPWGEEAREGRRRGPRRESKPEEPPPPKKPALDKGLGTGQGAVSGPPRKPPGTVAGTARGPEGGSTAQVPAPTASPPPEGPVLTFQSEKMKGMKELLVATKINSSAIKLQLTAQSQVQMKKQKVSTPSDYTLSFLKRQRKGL

EC50 (MENIN-MLL interaction): 8 nM
SMILES: Cc1c(CN2CCC3(CC2)CN(c2ncnc4sc(CC(F)(F)F)cc24)C3)ccc2c1cc(C#N)n2CC(N)=O [BAY-155]

SMILES: CC(C)N(C[C@H]1O[C@@H](n2cnc3c(N)ncnc32)[C@H](O)[C@@H]1O)[C@H]1C[C@@H](CCc2nc3cc(C(C)(C)C)ccc3[nH]2)C1 [EPZ-5676]
proliferation inhibited to [1]: 40–50%

SMILES: COc1cc(F)ccc1-c1cc(Nc2cc(CS(C)(=N)=O)ccn2)ncc1F (stereo not shown) [BAY 1251152]
IC50 (P-TEFb/CDK9): 3 nM | pharmacodynamics in phase I [2]: dose-dependent reduction of MYC, PCNA, and MCL-1 levels

SMILES: Cc1sc2c(c1C)C(c1ccc(Cl)cc1)=N[C@@H](CC(=O)Nc1ccc(O)cc1)c1nnc(C)n1-2 [OTX015]
EC50 (BRD4/2/3): 10 to 19 nM | clinical activity in AML patients (AML patients; AML patients harboring diverse driving mutations): partial blast clearance and recovery of platelets | dose-limiting effect in patients (AML patients; patients with incomplete bone marrow failure): severe thrombocytopenia as dose-limiting effect
